According to patent publication US20230381159A1 (priority 2020, published 2023):

Test system: SARS-CoV-2 pseudovirus (VSV-ΔG) entry into ACE2/Furin expressing host cells (Vero-E6)
Assay: microbe, parasite or virus in culture
Assay type: cell-based, SARS-CoV-2 pseudovirus / African Green Monkey cells
Details: Severe acute respiratory syndrome-related coronavirus, Vero C1008, 20 h, read-out: IC50, inhibition of pseudovirus entry (VSV-ΔG)

Compound | IC50 [µM]
O=C(Nc1ccc(-c2ccc(C(=O)Nc3cccc4cc(S(=O)(=O)O)ccc34)cc2)cc1)c1ccc([N+](=O)[O-])cc1 [Compound A2, 5-(4′-(4-Nitrobenzamido)biphenyl-4-ylcarboxamido)naphthalene-2-sulfonic acid] | 7
Nc1c(/N=N/c2ccc(-c3ccc(/N=N/c4cc(S(=O)(=O)O)c5ccccc5c4N)cc3)cc2)cc(S(=O)(=O)O)c2ccccc12 [Congo red] | 16
